Data set [1] concerns human T lymphocytes. Kind of data set: T lymphocyte activation measured by IL-2 synthesis after a-CD3 and a-CD28 stimulation. The format is cell-based. As to conditions: human T lymphocytes stimulated with a-CD3 and a CD28. From the text:
Without being limited by any theory regarding the mode of action of the multivalent guanylhydrazones, these compounds may work by disrupting the p38 MAPK pathway. p38 MAP kinase pathway plays a critical role in the activation of human T lymphocytes and this pathway is inhibited by the multivalent guanylhydrazone compounds. […] The activation of the p38 MAP kinase pathway was inhibited by the addition of a multivalent guanylhydrazone to the stimulated T lymphocytes. […] In addition, the assays of the present invention may include other in vivo assays to measure the effects of the test compounds on T cell activation. For example, test compounds may be assayed for their ability to inhibit activation of T cells. In such assays, test compounds may be added to T cells co-stimulated with a-CD3 and a-CD28. The stimulation of the T cells should result in the synthesis and secretion of cytokines, such as IL-2.

In data set [2] the test system is TNF. Briefly: TNF production by macrophages activated by LPS. In kind it is cell-based. From the text: (§1) This example illustrates an experiment showing that an exemplary guanylhydrazone-substituted compound, CNI-1493 (N,N′-bis(3,5-diacetylphenyl)decanediamide tetrakis(amidinohydrazone) tetrahydrochloride) inhibited the p38 MAP kinase pathway. […] Further evidence for the mechanism of translation suppression was given by experiments using constructs in which the 5′UTR and the 3′UTR of TNF to drive expression of a reporter molecule. Both the 5′UTR and the 3′UTR regions of the TNF gene were required to elicit maximal translation suppression by CNI-1493. The effect of CNI-1493 on p38 MAPK was next determined as p38 MAPK has been implicated in the regulation of TNF translation.

The test system of data set [3] is HIV 1-LAV. Briefly: HIV replication in PHA-activated primary T cells, reverse transcriptase (RT) assay. The format is cell-based. The procedure: (§2) Cell lysates were prepared for immunoprecipitation and immunoblotting 15 minutes after administration of LPS. In FIGS. 2B, 2C and 2D PHA-activated T cells were pretreated with control diluent or various concentrations of CNI-1493 for one hour, infected with HIV 1-LAV as in FIG. 1, and cultured for 10 days. FIG. 2B is a graph of dose-dependent inhibition by CNI-1493 of HIV-infection as assessed by the accumulation of reverse transcriptase (RT) at day 6 of culture. FIG. 2C is a graph of HIV inhibition by […] CNI-1493 over time. FIG. 2D is an immunoblot of phospho-p38 MAPK expression in HIV-1 infected cells on day 6 after culture treated with/without […] CNI-1493.
This example illustrates a role for the p38 MAP kinase pathway in HIV-1 infection of primary T cells, specifically addressing the hypothesis that activation of p38 MAPK is required for HIV-1 infection of primary T lymphocytes. For studies of human T cells, buffy coats were obtained by elutriation from normal human donors to the Long Island Blood Bank Services. Peripheral blood mononuclear cells (PBMC's) were isolated by density gradient centrifugation through Ficoll-Hypaque (Hypaque, Pharmacia). […]
Primary T cells activated with PHA were pretreated (or not) with CNI-1493 for one hour, infected with the LAV strain of HIV, and RT activity measured at various time points after infection, up to 10 days.

For data set [4], the system named is MIP 1α and MIP 1β. Kind of data set: MIP-1α and MIP-1β levels by sandwich ELISA in HIV 1-LAV infected primary T cells. In kind it is cell-based, human. The procedure: Assays were done in triplicate and error bars represent standard deviation of the mean.
Because ideal anti-HIV therapies would not interfere with the ability of the host to mount its own defense, it was also evaluated whether inhibition of the p38 MAP kinase signal transduction pathway inhibits chemokine production in T cells. Levels of MIP 1α and MIP 1β during LAV infection of primary T cells were not decreased by CNI-1493 (FIG. 4). MIP 1α and 1β levels dropped slightly late in HIV-1 infection (day 9).

Data set [5] deals with T1, p38 MAPK (Homo sapiens, UniProt Q16539).
T1 construct: endogenous in cells; host or cells: human PBMCs
T1 sequence (Q16539 whole entry): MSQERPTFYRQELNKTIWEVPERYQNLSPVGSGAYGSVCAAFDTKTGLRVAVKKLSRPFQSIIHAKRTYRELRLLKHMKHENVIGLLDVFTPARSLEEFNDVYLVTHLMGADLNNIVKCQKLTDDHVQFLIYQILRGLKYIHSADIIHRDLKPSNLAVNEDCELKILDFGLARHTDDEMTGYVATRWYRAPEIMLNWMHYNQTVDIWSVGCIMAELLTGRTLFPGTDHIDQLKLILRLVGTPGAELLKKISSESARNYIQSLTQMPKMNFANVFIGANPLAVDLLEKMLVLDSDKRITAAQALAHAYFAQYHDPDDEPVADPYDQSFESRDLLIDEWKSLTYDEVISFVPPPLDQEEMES
Kind of data set: p38 MAPK activity in human PBMC's after addition of LPS. The format is cell-based. As to conditions: human PBMC's pretreated with compound.
Description: as §1

Data set [6] relates to p38 MAPK. Briefly: phospho-p38 MAPK levels in HIV-1 infected T cells (immunoprecipitation/immunoblot). In kind it is cell-based, human. The procedure: as §2
T cells were infected with HIV 1-LAV in the presence of […] 18-mer, refed every 3-4 days with media containing fresh oligomer and supernatants collected at various time points for RT assay. Simultaneously, cells were also plated, treated similarly and harvested for phospho-p38 MAPK levels assayed by immunoprecipitation at various time points as measured by RT assay. Shown in this figure is the effect of addition of sense and antisense p38 MAPK oligonucleotide on phospho-p38 levels and its correlation with HIV replication, as measured by RT.
Whole cell lysates were prepared using kinase lysis buffer containing a final concentration of 20 mM Tris pH 7.5, 10% glycerol, 1% Triton X-100, 0.137M NaCl, 25 mM B-glyceropliospliate. […]
A general note: Immunoblotting shows a protein as a band on a membrane.

The target of data set [7] is T2, p38 MAP kinase (Homo sapiens, UniProt Q16539).
T2 construct: Endogenous p38 was immunoprecipitated with polyclonal p38 antibody; endogenous in cells; host or cells: Jurkat cells (ATCC)
T2 sequence (Q16539 whole entry): as above
Briefly: p38 MAP kinase activity (GST-ATF2 phosphorylation) in Jurkat cells stimulated with anti-CD3/anti-CD28. The format is cell-based. The source says:
For studies of human T cells, buffy coats were obtained by elutriation from normal human donors to the Long Island Blood Bank Services. Peripheral blood mononuclear cells (PBMC's) were isolated by density gradient centrifugation through Ficoll-Hypaque (Hypaque. Pharmacia); typically one preparation yielded 200×10^6 cells. T cells were isolated by passing through a T cell column (R&D) as per manufacturer's instructions. Jurkat cells were obtained from ATCC and maintained in DMEM containing 10% heat-inactivated fetal bovine serum, antibiotics and L-glutamine.
A rabbit polyclonal antibody against p38, and the recombinant GST-AFT2 plasmid where a gift of Dr. Roger Davis (Howard Hughes Institute, Worcester, Mass.). A GST-AFT2 fusion protein was purified by affinity chromatography using glutatione-agarose, as per manufacturer's instructions (Pharmacia, Inc.). The human monoclonal anti-CD3 antibody was purchased from Pharmingen and a human monoclonal anti-CD28 antibody was purchased.
Whole cell lysates were prepared using kinase lysis buffer, containing a final concentration of 20 mM Tris pH 7.5, 10% glycerol, 1% Triton X-100, 0.137M NaCl, 25 mM B-glycerophosphate, 2 mM EDTA, 1 mM orthovanadate, 2 mM pyrophosphate, 10 μg/ml Leupeptin, 1 mM PMSF. Proteins were fractionated on a 12% SDS-PAGE gel, transferred by electrophoresis to PVDF membranes (Biorad, Inc.) and probed with a 1:1000 dilution of a rabbit polyclonal antibody that immunospecifically recognizes phosphorylated human p38 MAPK (Santa Cruz Biotechnology, Inc.). Binding to antibody was detected using enhanced chemiluminescence (Amersham International PLC).
2-5×10^6 cells were lysed after appropriate pretreatment in 500-1000 μl kinase lysis buffer and centrifuged at 14,000×g for 15 minutes at 4° C. Endogenous p38 was immunoprecipitated with polyclonal p38 antibody prebound to protein-A agarose for one hour at room temp. […]

For data set [8], the system named is HIV-1. As to conditions: AIDS patients; cited from earlier work.
The mark [9] stands for this setting: 1 μM 18-mer, day 7 and day 10 after infection, FIG. 3.

Turning to `CC(=NNC(=N)N)c1cc(NC(=O)CCCCCCCCC(=O)Nc2cc(C(C)=NNC(=N)N)cc(C(C)=NNC(=N)N)c2)cc(C(C)=NNC(=N)N)c1.Cl.Cl.Cl.Cl` [CNI-1493, N,N′-bis(3,5-diacetylphenyl)decanediamide tetrakis(amidinohydrazone) tetrahydrochloride], the “activation of T lymphocytes as measured by IL-2 synthesis” value in data set [1] is given as “inhibition of activation of the T lymphocytes”. Besides, in data set [2], the “TNF production by macrophages activated by LPS” value is reported as “inhibit TNF production” and the “synthesis of 26 kDA membrane form of TNF” value is given as “blocked the synthesis”. For the same compound, in data set [3] (primary T cells activated with PHA, pretreated one hour, LAV strain of HIV, RT activity, FIG. 2B, read-out: IC50 of inhibition of HIV replication in T-cells), the IC50 was approximately 500 nM. In data set [4] (FIG. 4), the “level of MIP 1α during LAV infection of primary T cells” value is “not decreased” and the “level of MIP 1β during LAV infection of primary T cells” value was “not decreased”. The “chemokine levels (MIP 1α and 1β) day 6” value in data set [4] (day 6 of HIV-1 infection) is “slightly elevated”. Moreover, the “chemokine levels (MIP 1α and 1β) day 9” value in data set [4] (day 9 of HIV-1 infection) is recorded as “normal”. For the same compound, the “p38 MAPK activity after the addition of LPS” value in data set [5] was “suppression of p38 MAPK activity”. For the same compound, in data set [6] (1 μM, FIGS. 2C, 2D), the “p38 MAP kinase activity in HIV-infected T cells” value is given as “suppression of p38 MAP kinase activity”. Also, the “effect on anti-CD3 stimulated p38 MAPK activity” value in data set [7] (anti-CD3 alone) is “unaffected”. Also, the “inhibition of stimulated p38 MAPK activity” value in data set [7] (anti-CD28 stimulation (as worded: stimulation of p38 MAPK), dose of 1.5 μM) is reported as “approximately 50%”. In addition, the “inhibition of p38 MAPK activity on co-stimulation with anti-CD3 and anti-CD28” value in data set [7] (dose of 1.5 μM) is given as “inhibited completely”.

Take “p38 MAP kinase antisense oligonucleotides: 18-mer phosphothiorate oligonucleotide, antisense to bp 324-341 of human p38 MAPK, 5′GTCTTGTTCAGCTCCTGC3′”: the “HIV replication as measured by RT” value in data set [3] (setting [9]) was “decreased HIV replication”. Further, the “phospho-p38 MAPK activity” value in data set [6] (setting [9]) is given as “decrease in phospho-p38 MAPK activity”.

Consider `CC(C)c1nc(CN(C)C(=O)N[C@H](C(=O)N[C@@H](Cc2ccccc2)C[C@H](O)[C@H](Cc2ccccc2)NC(=O)OCc2cncs2)C(C)C)cs1` [ABT-538], for which, in data set [8], the CD4 lymphocyte counts result is given as “rise substantially” and the “plasma HIV-1 levels” value was “decrease exponentially”.

As a reminder, the IC50 is the concentration needed to halve the response being measured.
